Assay results reported in patent publication US8778926B2, “Compounds, pharmaceutical compositions and uses thereof” (Boehringer Ingelheim International GmbH, priority 2011, dated 2014).

target: T1, human GPR119 (Homo sapiens, UniProt Q8TDV5); test: AlphaScreen cAMP assay, activation of GPR119 in Min-6/hGPR119 cells; format: cell-based; conditions: MIN6 cells stably transfected with human GPR119; intracellular cAMP; 45 minutes incubation at room temperature
T1 construct: expression vector for human GPR119 cDNA (Acc. No. NP_848566); expressed in transfected cells
T1 sequence (Q8TDV5 1-335): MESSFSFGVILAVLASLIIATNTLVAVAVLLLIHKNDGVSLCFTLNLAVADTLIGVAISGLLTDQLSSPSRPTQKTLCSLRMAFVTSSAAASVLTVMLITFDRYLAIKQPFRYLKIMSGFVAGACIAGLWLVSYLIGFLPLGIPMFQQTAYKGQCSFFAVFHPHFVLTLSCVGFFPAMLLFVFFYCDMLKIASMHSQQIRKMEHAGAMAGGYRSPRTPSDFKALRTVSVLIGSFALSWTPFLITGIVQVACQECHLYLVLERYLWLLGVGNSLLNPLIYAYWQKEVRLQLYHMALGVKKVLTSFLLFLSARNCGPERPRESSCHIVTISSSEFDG
Protocol: The compounds of formula I according to the invention modulate the activity of the G-protein-coupled receptor GPR119. The effect of the compounds on the activation of GPR119 and on the stimulation of intracellular cAMP concentration is determined using the AlphaScreen cAMP Assay Kit (Cat. No. #6760625R) made by PerkinElmer.
MIN6 cells [Miyazaki J et al. Endocrinology. 1990 July; 127(1):126-32] are stably transfected with an expression vector for human GPR119 cDNA (Acc. No. NP_848566). Min-6/hGPR119 cells are cultured in DMEM, 10% FBS, 500 μM β-mercaptoethanol, 0.3 mg/mL Geniticin, 2 mM GlutaMAX at 37° C. 5% CO2. For the assay, the cells are seeded in Optiplates (white, 384-well, 160 W— barcoded, TC, sterile with lid, Cat. No. #6007688 (Perkin Elmer); 10000 cells/well; 50 μl). The plates covered with lids are then incubated for 24 hours at 37° C./5% CO2. After the medium is aspirated from the wells completely, 10 μl of the test compound are added, the compounds are diluted using stimulating buffer (140 mM NaCl, 3.6 mM KCl, 0.5 mM NaH2PO4, 0.5 mM MgSO4, 1.5 mM CaCl2, 10 mM Hepes, 5 mM NaHCO3; pH 7.4. 0.5 mM IBMX and 0.1% BSA, the final DMSO concentration is 1%). After 45 minutes incubation at room temperature (approx. 20° C.), the cAMP concentrations are determined using the AlphaScreen cAMP Assay Kit (Cat. No. #6760625R from PerkinElmer).

Compared with `CCc1cnc(N2CCC(C3Cc4cc(-c5ccc(S(C)(=O)=O)cc5)ncc4O3)CC2)nc1` (stereo not drawn) [Example 5, 2-[1-(5-Ethyl-pyrimidin-2-yl)-piperidin-4-yl]-5-(4-methanesulfonyl-phenyl)-2,3-dihydro-furo[2,3-c]pyridine], `CS(=O)(=O)c1ccc(-c2cc3c(cn2)O[C@H](C2CCN(c4ncc(Cl)cn4)CC2)C3)cc1` (single isomer, unassigned) [Example 90] is 5-fold higher in EC50: 12 nM for the first, 60 nM for the second.

`CC(C)c1noc(N2CCC(C3Cc4cc(-c5ccc(CS(C)(=O)=O)cc5)ncc4O3)CC2)n1` (stereo not drawn) [Example 13, 2-[1-(3-Isopropyl-[1,2,4]oxadiazol-5-yl)-piperidin-4-yl]-5-(4-methanesulfonylmethyl-phenyl)-2,3-dihydro-furo[2,3-c]pyridine] and `CC(C)c1noc(N2CCC(C3Cc4cc(-c5ccc(S(C)(=O)=O)cc5)ncc4O3)CC2)n1` (stereo not drawn) [Example 6, 2-[1-(3-Isopropyl-[1,2,4]oxadiazol-5-yl)-piperidin-4-yl]-5-(4-methanesulfonyl-phenyl)-2,3-dihydro-furo[2,3-c]pyridine] are within 1.5-fold of each other in EC50: 28 nM for the first, 32 nM for the second.

Compared with `CCc1cnc(N2CCC([C@]3(C)Cc4cc(-c5ccc(S(C)(=O)=O)cc5)ncc4O3)CC2)nc1` (single isomer, unassigned) [Example 28], `CC(C)c1noc(N2CCC([C@]3(C)Cc4cc(-c5ccc(S(C)(=O)=O)cc5)ncc4O3)CC2)n1` (single isomer, unassigned) [Example 26] is 2.4-fold lower in EC50: 22 nM for the first, 9 nM for the second.

First: CC(C)c1nc(N2CCC([C@@H]3Cc4cc(C5=CCN(S(C)(=O)=O)CC5)ncc4O3)CC2)no1 (single isomer, unassigned) [Example 46]
Second: CC(C)c1nc(N2CCC(C3Cc4cc(C5=CCN(S(C)(=O)=O)CC5)ncc4O3)CC2)no1 (stereo not drawn) [Example 22]
The EC50 of the first is 3-fold higher: 18 nM for the first, 6 nM for the second. The second is the more potent here.

Compared with `CCc1cnc(N2CCC(C3Cc4cc(-c5ccc(C(=O)NCc6ccccn6)cc5)ccc4O3)CC2)nc1` (stereo not drawn) [Example 73], `CCc1cnc(N2CCC(C3Cc4cc(-c5ccc(C(=O)NCC#N)cc5)ccc4O3)CC2)nc1` (stereo not drawn) [Example 67] is 7.4-fold higher in EC50: 19 nM for the first, 141 nM for the second. The first is the more potent here.

Going from `CCc1cnc(N2CCC([C@@H]3Cc4cc(C5=CCN(S(C)(=O)=O)CC5)ncc4O3)CC2)nc1` (single isomer, unassigned) [Example 30] to `CS(=O)(=O)N1CC=C(c2cc3c(cn2)O[C@H](C2CCN(c4ncc(Cl)cn4)CC2)C3)CC1` (single isomer, unassigned) [Example 86], the EC50 rises from 4 nM to 12 nM (3-fold).

Compared with `CC(C)c1nc(N2CCC(C3Cc4cc(-c5ccc(CS(C)(=O)=O)cc5)ncc4O3)CC2)no1` (stereo not drawn) [Example 16], `CC(C)c1nc(N2CCC(C3Cc4cc(-c5ccc(S(C)(=O)=O)cc5)ncc4O3)CC2)no1` (stereo not drawn) [Example 8, 2-[1-(5-Isopropyl-[1,2,4]oxadiazol-3-yl)-piperidin-4-yl]-5-(4-methanesulfonyl-phenyl)-2,3-dihydro-furo[2,3-c]pyridine] is 1.5-fold lower in EC50: 17 nM for the first, 11 nM for the second. The second is the more potent here.

Compared with `CCc1cnc(N2CCC(C3Cc4cc(-c5ccc(S(C)(=O)=O)cc5)ccc4O3)CC2)nc1` (stereo not drawn) [Example 1, 5-Ethyl-2-{4-[5-(4-methanesulfonyl-phenyl)-2,3-dihydro-benzofuran-2-yl]-piperidin-1-yl}-pyrimidine], `CCc1cnc(N2CCC(C3Cc4cc(-c5ccc(C(=O)NCC(C)O)cc5)ccc4O3)CC2)nc1` (stereo not drawn) [Example 74] is 2.5-fold higher in EC50: 21 nM for the first, 52 nM for the second. The first is the more potent here.

Going from `Cc1cnc(N2CCC(C3Cc4cc(-c5ccc(S(C)(=O)=O)cc5)ncc4O3)CC2)cn1` (stereo not drawn) [Example 10, 5-(4-Methanesulfonyl-phenyl)-2-[1-(5-methyl-pyrazin-2-yl)-piperidin-4-yl]-2,3-dihydro-furo[2,3c]pyridine] to `CS(=O)(=O)c1ccc(-c2cc3c(cn2)O[C@@H](C2CCN(c4ncc(Cl)cn4)CC2)C3)cc1` (single isomer, unassigned) [Example 87], the EC50 falls from 152 nM to 13 nM (12-fold).

`CCc1cnc(N2CCC(C3Cc4cc(-c5ccc(C(=O)NCC(C)(C)CO)cc5)ccc4O3)CC2)nc1` (stereo not drawn) [Example 63] and `CCc1cnc(N2CCC(C3Cc4cc(-c5ccc(C(=O)NCCC(C)(C)O)cc5)ccc4O3)CC2)nc1` (stereo not drawn) [Example 75] are within 1.5-fold of each other in EC50: 112 nM for the first, 81 nM for the second.

First: CS(=O)(=O)c1ccc(-c2cc3c(cn2)OC(C2CCN(c4nc(C(F)(F)F)no4)CC2)C3)cc1 (stereo not drawn) [Example 14, 5-(4-Methanesulfonyl-phenyl)-2-[1-(3-trifluoromethyl-[1,2,4]oxadiazol-5-yl)-piperidin-4-yl]-2,3-dihydro-furo[2,3-c]pyridine]
Second: CCCc1nc(N2CCC(C3Cc4cc(-c5ccc(S(C)(=O)=O)cc5)ncc4O3)CC2)no1 (stereo not drawn) [Example 9, 5-(4-Methanesulfonyl-phenyl)-2-[1-(5-propyl-[1,2,4]oxadiazol-3-yl)-piperidin-4-yl]-2,3-dihydro-furo[2,3-c]pyridine]
The EC50 of the first is 2.4-fold higher: 29 nM for the first, 12 nM for the second.

Compared with `CCc1cnc(N2CCC(C3Cc4cc(-c5ccc(C(=O)N(C)CCOC)cc5)ccc4O3)CC2)nc1` (stereo not drawn) [Example 62], `CCc1cnc(N2CCC(C3Cc4cc(-c5ccc(C(=O)N(C)C6CCCOC6)cc5)ccc4O3)CC2)nc1` (stereo not drawn) [Example 61] is 2.4-fold higher in EC50: 20 nM for the first, 47 nM for the second. The first is the more potent here.

First: CS(=O)(=O)N1CC=C(c2cc3c(cn2)O[C@@H](C2CCN(c4ncc(C(F)(F)F)cc4F)CC2)C3)CC1 (single isomer, unassigned) [Example 84]
Second: CS(=O)(=O)N1CC=C(c2cc3c(cn2)O[C@@H](C2CCN(c4ncc(C5CC5)cn4)CC2)C3)CC1 (single isomer, unassigned) [Example 91]
The EC50 of the first is 1.5-fold lower: 2 nM for the first, 3 nM for the second.

First: CS(=O)(=O)c1ccc(-c2cc3c(cn2)O[C@@H](C2CCN(c4ncc(C5CC5)cn4)CC2)C3)cc1 (single isomer, unassigned) [Example 93]
Second: CCCc1noc(N2CCC(C3Cc4cc(-c5ccc(CS(C)(=O)=O)cc5)ncc4O3)CC2)n1 (stereo not drawn) [Example 15, 5-(4-Methanesulfonylmethyl-phenyl)-2-[1-(3-propyl-[1,2,4]oxadiazol-5-yl)-piperidin-4-yl]-2,3-dihydro-furo[2,3-c]pyridine]
The EC50 of the first is 3.8-fold lower: 10 nM for the first, 38 nM for the second.

`CC(C)c1noc(N2CCC([C@]3(C)Cc4cc(C5=CCN(S(C)(=O)=O)CC5)ncc4O3)CC2)n1` (single isomer, unassigned) [Example 42] and `CC(C)c1nc(N2CCC([C@]3(C)Cc4cc(C5=CCN(S(C)(=O)=O)CC5)ncc4O3)CC2)no1` (single isomer, unassigned) [Example 43] are within 1.5-fold of each other in EC50: 11 nM for the first, 9 nM for the second.

`CC(C)(C)c1nc(N2CCC([C@@H]3Cc4cc(C5=CCN(S(C)(=O)=O)CC5)ncc4O3)CC2)no1` (single isomer, unassigned) [Example 51] and `CCCc1nc(N2CCC(C3Cc4cc(C5=CCN(S(C)(=O)=O)CC5)ncc4O3)CC2)no1` (single isomer, unassigned) [Example 44] are within 1.5-fold of each other in EC50: 7 nM for the first, 6 nM for the second.

`CCc1cnc(N2CCC(C3Cc4cc(-c5ccc(C(=O)NCC6CCCO6)cc5)ccc4O3)CC2)nc1` (stereo not drawn) [Example 72] and `CCc1cnc(N2CCC(C3Cc4cc(-c5ccc(C(=O)N6CCOCC6)cc5)ccc4O3)CC2)nc1` (stereo not drawn) [Example 60] are within 1.5-fold of each other in EC50: 12 nM for the first, 11 nM for the second.

First: CCCc1noc(N2CCC(C3Cc4cc(C5=CCN(S(C)(=O)=O)CC5)ncc4O3)CC2)n1 (stereo not drawn) [Example 19, 5-(1-Methanesulfonyl-1,2,3,6-tetrahydro-pyridin-4-yl)-2-[1-(3-propyl-[1,2,4]oxadiazol-5-yl)-piperidin-4-yl]-2,3-dihydro-furo[2,3-c]pyridine]
Second: CCc1cnc(N2CCC(C3Cc4cc(-c5ccc(C(=O)N6CCC(C)(O)C6)cc5)ccc4O3)CC2)nc1 (stereo not drawn) [Example 68]
The EC50 of the first is 2.4-fold lower: 25 nM for the first, 60 nM for the second. The first is the more potent here.
